# In PubChem BioAssay AID624361 (Broad Institute, 2012):
# Results filed as inconclusive are left out. Calls of active or inactive are those of the source. The rule behind the calls is not given here.
# Assay: inhibitors of LMP1-driven NF-kB reporter, dose response, cell-based, EBV LMP1, luciferase, dry powder, set 2 (AID 624361)
# Details: LMP1-induced NF-kappaB luciferase reporter cells, luminescence; at 35 µM (top of the series)
row,SMILES,"activity change, negative = inhibition"
1,C[C@H]1CN([C@@H](C)CO)C(=O)Cc2cc(NC(=O)Cc3ccccc3)ccc2O[C@@H]1CN(C)Cc1ccc(C(F)(F)F)cc1,-12.8% (inactive)
2,C[C@H](NC(=O)C[C@H]1C=C[C@@H](NC(=O)Cc2ccccn2)[C@@H](CO)O1)c1ccccc1,11% (inactive)
3,COc1ccccc1CNC(=O)C[C@H]1C[C@@H]2c3cc(NC(=O)CN(C)C)ccc3O[C@@H]2[C@@H](CO)O1,0.74% (inactive)
4,C[C@@H]1CN([C@H](C)CO)C(=O)Cc2cc(NC(=O)Cc3ccccc3)ccc2O[C@H]1CN(C)Cc1ccc(C(F)(F)F)cc1,-9.16% (inactive)
5,C[C@H]1CN([C@@H](C)CO)C(=O)c2c(c3ccccc3n2C)-c2ccccc2CO[C@@H]1CN(C)C(=O)Nc1ccc(F)cc1,-12.4% (inactive)
6,C[C@@H]1CN([C@@H](C)CO)C(=O)Cc2cc(NC(=O)Cc3ccccc3)ccc2O[C@@H]1CN(C)Cc1ccc(C(F)(F)F)cc1,-12.6% (inactive)
7,COC(=O)C[C@@H]1C[C@@H]2c3cc(NC(=O)CN(C)C)ccc3O[C@@H]2[C@@H](CO)O1,-0.64% (inactive)
8,O=C(C[C@@H]1C[C@@H]2c3cc(NC(=O)c4cccnc4)ccc3O[C@@H]2[C@H](CO)O1)NCC(F)(F)F,-2.29% (inactive)
9,COc1ccccc1C(=O)Nc1ccc2c(c1)C(=O)N(C)[C@@H]1CC[C@H](CC(=O)NCCc3ccncc3)O[C@H]1CO2,-6.13% (inactive)
10,O=C(Cc1ccccn1)NCC[C@H]1CC[C@@H](NC(=O)Nc2ccc(Cl)cc2)[C@H](CO)O1,-2.38% (inactive)
11,O=C(Cc1ccccn1)NCC[C@@H]1CC[C@H](NC(=O)Nc2ccc(Cl)cc2)[C@H](CO)O1,-5.88% (inactive)
12,C[C@H](NC(=O)C[C@H]1C=C[C@H](NC(=O)Cc2ccccn2)[C@H](CO)O1)c1ccccc1,5.47% (inactive)
13,O=C(C[C@H]1C[C@@H]2c3cc(NS(=O)(=O)c4ccc(F)cc4)ccc3O[C@@H]2[C@H](CO)O1)NC1CCCCC1,-1.53% (inactive)
14,C[C@H](NC(=O)C[C@@H]1C=C[C@@H](NC(=O)Cc2ccccn2)[C@H](CO)O1)c1ccccc1,-0.475% (inactive)
